Key:
[1] = in vivo, po; cited from earlier work
[2] = system: CpG-rich sequences of mouse IL-6 promoter and introns 1, 3; assay: CpG-free luciferase reporter with IL-6 promoter/intron CpG-rich segments in N2a cells; type: cell-based; conditions: 24 h
Method: To investigate how DHCA may attenuate IL-6 generation, we tested the effect of DHCA on Toll-like receptor-4 mediated signaling pathways. PBMCs were pretreated with DHCA and stimulated with LPS using the same protocol as during screening. Samples were taken at 0, 30 min, 60 min, 6 h and 16 h following LPS stimulation and cell lysates were subjected to a multiplex ELISA assay. […] Based on evidence that DNA methylation at a single CpG in the human IL-6 promoter region effectively alters IL-6 expression, we next tested whether DHCA can modulate IL-6 gene expression through methylation mechanisms. We treated PBMC cells with DHCA and measured the expression of enzymes essential for DNA methylation/demethylation. […] To investigate how methylation influences IL-6 gene expression, we employed the CpG-free luciferase reporter system. We cloned a ~280 bp CpG rich DNA segment from the mouse IL-6 promoter into a promoterless CpG-free reporter construct and transfected into N2a cells. We found the CpG-rich IL-6 promoter segment presented no inherent promoter activity as reflected by no differences in luciferase activity compared to the control construct (Fig. 2f). […] We then cloned CpG rich DNA segments from IL-6 introns 1, 3 or 4 into the CpG-free luciferase reporter construct with a minimal EF1 promoter and no enhancer activity. […] In contrast, the CpG-rich region of IL-6 intron 4 presented no observable enhancer activity (Fig. 2g). […] To test whether DHCA may influence the expression of other pro-inflammatory factors, we measured the level of secreted cytokines following LPS stimulation (Supplementary Fig. 3).
CpG-rich motif from mouse IL-6 promoter and intron 1, intron 3, and intron 4 were cloned into basic (no promoter or enhancer) or promoter (minimal EF1 promoter with no enhancer) pCpG-free Lucia plasmid (InvivoGen) using In-Fusion Cloning Kit (Clontech Laboratories). Plasmids were prepared in E. coli GT115 cells and expressed in N2A neuoblastoma cells using lipofectamine 2000 (ThermoFisher) according to manufacturer’s instruction. Following overnight recovery, cells were subjected to 5 µM of methylation inhibitor 5-Aza-2′-deoxycytidine (AZA-DC) or DHCA treatment. Twenty-four hours later, 10 µl of medium was incubated with 50 µl of QUANTI-Luc luciferase substrate for luciferase activity assessment.

[3] = system: stress susceptible C57BL/6 mice after RSDS; assay: RSDS, therapeutic treatment of susceptible mice; type: in vivo, mouse; conditions: Imipramine 20 mg/kg-BW/day i.p. for 35 days
Excerpt: To test the therapeutic efficacy of DHCA/Mal-gluc, we induced depression-like behavior using two different methods. In the first set of studies, mice were subjected to RSDS followed by SI test. All susceptible mice with SI ratio <0.8 were randomly grouped into vehicle or DHCA/Mal-gluc group. Following two weeks treatment, all mice were subjected to SI re-testing without further stress exposure (Fig. 5a). […] In a parallel study to compare the treatment efficacy with the tricylic antidepressant Imipramine, we treated the susceptible mice with Imipramine through i.p. injection for 35 days. […] We then examined the effect of DHCA/Mal-gluc on RSDS-induced anhedonia and an ethologically relevant self-neglect phenotype. […] We next measured the levels of IL-6 in plasma and Rac1 in the NAc after behavioral testing. […]
All social interaction (SI) tests were performed under red-light conditions. […] Their movements were automatically monitored and recorded (Ethovision 3.0; Noldus Information Technology) for 2.5 min in the absence (target absent phase) of a novel CD-1 mouse and followed by 2.5 min exploratory behavior in the presence of a caged CD-1 mouse (target present phase). SI behavior was then calculated as a ratio of the time spent in the interaction zone with the target present divided by the time spent in the interaction zone with the target absent. […]

Compound | Detection in Brain [1] | Detection in Plasma [1] | other results
resveratrol-glucuronide | + | + | –
OMe-quercetin-glucuronide | + | + | –
Nc1ncn([C@H]2C[C@H](O)[C@@H](CO)O2)c(=O)n1 [AZA-DC, 5-aza-2′-deoxycytidine] | – | – | luciferase expression, CpG-rich IL-6 promoter segment ([2]; 5 µM): no effect; luciferase (enhancer) activity, IL-6 intron 1 [2]: partially reduced; luciferase (enhancer) activity, IL-6 intron 3 [2]: totally abolished
OMe-resveratrol-glucuronide | + | + | –
quercetin-glucuroide | + | + | –
CN(C)CCCN1c2ccccc2CCc2ccccc21 [Imipramine] | – | – | susceptible mice with resilient phenotype upon retesting [3]: about 50%

Reference: PMC5797143, “Epigenetic modulation of inflammation and synaptic plasticity promotes resilience against stress in mice” (Nature Communications, 2018)
